Test results: paper PMC6468747 (Cancers, 2019)
Where two headings read alike, the source gives them in different places.

Experiments:
Br-001 xenograft tumors = experiment: Patient-derived TNBC xenograft (PDX), PO, racemate vs E1; assay type: in vivo, NSG mice; settings: 20 mg/kg PO
Experimental: The second PDX tumor model experiment was conducted to assess the efficacy of VNLG-152R versus VNLG-152E1 following PO administration. When the tumor volumes had reached about 100 mm^3, the mice were randomly divided into three groups of five mice each. The control group received vehicle (PO) and the other two groups received VNLG-152R (20 mg/kg, PO, once daily), and VNLG-152E1 (20 mg/kg, PO, once daily) five days/week. These treatments continued for 15 days and the tumors were measured and processed as described above.

Mnk1 = molecular target: T1, Mnk1 (Homo sapiens, UniProt Q9BUB5); experiment: Surface plasmon resonance (OpenSPR) binding to immobilized GST-Mnk1; settings: SPR, 1.25, 10 and 30 µM, 1:1 Langmuir model, 30 °C, scouting analysis; read-out: dissociation constant (KD)
T1 construct: incubated with recombinant full length Mnk1 proteins or cell lysates overnight at 4 °C; GST
T1 sequence (Q9BUB5 whole entry): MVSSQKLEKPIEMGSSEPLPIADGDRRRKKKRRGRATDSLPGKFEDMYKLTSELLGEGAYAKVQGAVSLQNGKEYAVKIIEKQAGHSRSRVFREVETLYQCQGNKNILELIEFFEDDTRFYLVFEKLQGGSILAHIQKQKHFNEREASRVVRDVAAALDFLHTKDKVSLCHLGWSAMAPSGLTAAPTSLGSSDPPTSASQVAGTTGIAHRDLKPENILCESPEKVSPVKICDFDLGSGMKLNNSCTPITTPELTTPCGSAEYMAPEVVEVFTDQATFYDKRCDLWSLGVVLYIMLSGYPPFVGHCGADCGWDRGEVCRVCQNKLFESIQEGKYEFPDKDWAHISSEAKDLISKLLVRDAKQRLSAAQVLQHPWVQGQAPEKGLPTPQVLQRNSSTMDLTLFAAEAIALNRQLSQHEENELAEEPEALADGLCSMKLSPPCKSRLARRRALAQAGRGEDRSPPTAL
Experimental: Purified recombinant Mnk1 protein with GST tag (2.5 µg/mL) was fixed on GST sensor chip (Nicoya) by capture-coupling, then VNLG-152R (1.25, 10 and 30 µM) were injected (flow rate of 20 µL/min) sequentially into the chamber in running buffer (PBS-T with 10% DMSO). The interaction of Mnk1 with VNLG-152R was detected by Open SPRTM (Nicoya Lifesciences, Kitchener, ON, Canada) at 30 °C. The chip was regenerated with regeneration solution (10 mM glycine-HCL) at a flow rate of 150 µL/min. The close curve fitting to the sensograms were calculated by global fitting curves (1:1 Langmuir binding model). The data was retrieved and analyzed with TraceDraw software (Kitchener, ON, Canada).

eIF4F complex = experiment: m7GTP pull-down of eIF4F complex in TNBC cells; assay type: cell-based, human; settings: 20 µM, 24 h, MDA-MB-231 and MDA-MB-468
Experimental: eIF4F complex in cell extracts was detected using affinity chromatography 7-methyl GTP (m7GTP)-Sepharose as described previously. Briefly, MDA-MB-231 treated with 20 μM VNLG-152 for 24 h were lysed in buffer containing 20 mM Tris-HCl (pH 7.4), 150 mM NaCl, 1 mM EDTA, 1 mM EGTA, 1 mM β-glycerophosphate, 1 mM Na3VO4, 1% Triton X-100, 2.5 mM sodium pyrophosphate, and protease inhibitor cocktail, on ice for 15 min. After centrifugation at 12,000× g for 15 min at 4 °C, the supernatants were collected and incubated with m7GTP-Sepharose (GE Healthcare Bio-Sciences Corp./Amersham, Piscataway, NJ, USA) at 4 °C for 2 h with constant shaking. Beads were washed three times with lysis buffer and three times with 1× Phosphate Buffered Salin, (PBS). The samples were then denatured, and the supernatants were then loaded to SDS-PAGE for immunoblotting.

mTORC1 signaling = experiment: Western blot of mTORC1 signaling in MDA-MB-231 and MDA-MB-468 cells; assay type: cell-based, human; settings: 72 h
Experimental: MDA-MB-231, MDA-MB-468, MDA-MB-436, MDA-MB-453, HCC-1806, and MFM-223 cells were purchased from American Type Culture Collection (ATCC, Manassas, VA, USA), and authenticated at the Biopolymer/Genomics Core Facility, University of Maryland Baltimore. Cells were tested for mycoplasma contamination at the University of Maryland Marlene and Stewart Greenebaum Cancer Center (UMGCC) Translational Shared Service. Cells were cultured in the recommended media supplemented with 10% FBS and plated 1 day prior to treatment. Cells were treated with the indicated dose and time in the figure at 37 °C in 5% CO2. Protein lysates were harvested in RIPA lysis buffer (Sigma). Western blotting was done as described previously with antibodies described above.

MDA-MB-231 cells = experiment: Multiplex Luminex supernatant cytokine analysis; assay type: cell-based, human; settings: 72 h, cell supernatants
Experimental: Supernatants from the MDA-MB-231 (TNBC) cells in Fetal Bovine Serum (FBS) containing media were treated with various concentrations of VNLG-12R for 72 h, were collected, and various cytokines and growth factor concentrations (CLCX-1, IL-6, IL8 and TNF-α) were determined by Luminex multiplex assay kit (Millipore, Billerica, MA, USA) according to the manufacturer’s instructions. The expressions of secreted cytokines were read on Luminex 100 reader. The data was then analyzed using the BioPlex Software (BioRad, Hercules, CA, USA). The Luminex multiplex assays were conducted at the University of Maryland School of Medicine Cytokine Core Laboratory (Baltimore, MD, USA).

[1] = system: panel of 6 human TNBC cell lines; experiment: MTT cell growth assay, summary over the panel; assay type: cell-based; settings: Homo sapiens, 168 h, 7 days
Experimental: Figure 3 In vitro characterization, pharmacokinetics and toxicity profile of VNLG-152R and its two enantiomers. (A) HPLC chromatograms racemic VNLG-152R (left panel) and the resolved enantiomers VNLG-152E1 and VNLG-152E2 (right panel). The conditions of HPLC procedure are presented in Supplementary Materials. (B) Table summarizing GI50 values (µM) each cell line treated with VNLG-152R and its enantiomers. TNBC cell subtypes were treated with listed compound (0.1 nmol/L–100 µmol/L) for 7 days and the GI50 values for the anti-proliferative effects of the compounds were determined from dose response curves (by a nonlinear regression analysis using Graph Pad Prism). Data represents the results from six independent experiments for each cell line. (C) Plasma concentration versus time profile after intravenous (IV, 2 mg/kg each, top panel) or oral (PO, 20 mg/kg each, bottom panel) of VNLG-152R (red), VNLG-152E1 (purple) and VNLG-152E2 (blue) to female CD1 mice. Values represent the mean plasma concentrations from three mice per time point. (D) Table of the pharmacokinetic parameters of various compounds after IV and PO dosing. AUC = area under the curve, T1/2 = elimination half-life, Cmax = maximum plasma concentration, F (%) = oral bioavailability. (E) Effects of VNLG-152R, VNLG-152E1 and VNLG-152E2 on body weight and clinical observations at chronic dose termination of study. Three different doses, i.e., 10, 25, and 50 mg/kg/day (formulated in 40% β-cyclodextrin in saline) of each compound were administered daily by oral gavage for 14 days. Each group consisted of three mice. Loss in body weight, a clinical sign of toxicity was observed during the 14 days of dosing and the maximum tolerated dose (MTD) was estimated following established procedures. Changes in body weight were scored on a scale of 0–4 as follows as described under methods. […]

CC1=C(/C=C/C(C)=C/C=C/C(C)=C/C(=O)Nc2ccc(F)cc2)C(C)(C)CCC1n1ccnc1 (racemic) [VNLG-152R, 4-(±)-(1H-imidazol-1-yl)-N-(4-fluorophenyl)-(E)-retinamide]
changes in body weights (Br-001 xenograft tumors): No changes in body weights were observed | TGI (Br-001 xenograft tumors; 5 days per week, 15 days): 82% | Kd (Mnk1): 6460 nM | eIF4G and 4E-BP1 association with eIF4E (eIF4F complex): decreased eIF4G and increased eukaryotic translation initiation factor 4E-binding protein 1 (4E-BP1) association with eIF4E | depletion of p-mTOR (Ser2448), p4E-BP1, peIF4E and p-p70 S6K (mTORC1 signaling): strong dose-dependent depletion | secreted IL-6 and IL-8, TNFα and chemokine CXCL1 (MDA-MB-231 cells): dose-dependent reduction | GI50 ([1]; mean over 6 TNBC cell lines, read-out: average GI50): 970 nM | GI50 ([1]; range over 6 TNBC cell lines, read-out: range of GI50): 620 to 1860 nM
